Earlier results in US20210008096A1, “SUPPRESSION OR REDUCTION OF THE PAT[…] VIRULENCE OF A C[…]” (Da Volterra, priority 2015, published 2021).

System: Clostridium difficile
Settings: following treatment of CDAD; 15% vs 25%

CCc1c(Cl)c(O)c(Cl)c(O)c1C(=O)O[C@H]1[C@H](O)[C@H](OC)[C@H](OC/C2=C\C=C\C[C@H](O)/C(C)=C/[C@H](CC)[C@@H](O[C@@H]3OC(C)(C)[C@@H](OC(=O)C(C)C)[C@H](O)[C@@H]3O)/C(C)=C/C(C)=C/C[C@@H]([C@@H](C)O)OC2=O)O[C@@H]1C [fidaxomycin, fidaxomicin]
rate of recurrence: 15%
